Tests used:
[1] = system: Aβ1-42 induced inhibition of long-term potentiation in the CA1 region of hippocampal slices; experiment: Aβ-induced LTP impairment in CA1 region of hippocampal slices (fEPSP recordings, theta-burst stimulation); assay type: cell-based, rat; mice; details: for reversal of Aβ-induced LTP impairment: individual terpene trilactones at 1 μM each, co-treated with 200 nM Aβ1-42 oligomers, 20 min; for efficiency of rescue of LTP impairment compared with GJ: 1 μM, 20 min treatment, slices treated with Aβ
[2] = system: SY5Y human neuroblastoma cell line; details: Bate et al. (25); cited from earlier work
glycine receptor = details: among several receptor-gated channels; cited from earlier work
[3] = system: cultured hippocampal neurons treated with oligomeric Aβ1-42; experiment: Neuronal cell death assay (nuclear counting of viable cells); details: for cells surviving: mean±SEM
[4] = system: GABAA receptor convulsant binding site; details: cited from earlier work
GABAA receptor = details: compared with all the ginkgolides; cited from earlier work
[5] = system: inhibition of LTP by Aβ1-42 oligomers; details: earlier studies (19); cited from earlier work
[6] = 1 μM compound added at the same time as 10 μM oligomeric Aβ1-42, 24 hour, Aβ alone 48.5%±2.4

CC(C)(C)[C@]1(O)CC2OC(=O)CC23C(=O)OC2OC(=O)[C@H](O)C231 (stereo partly drawn) [BB, bilobalide]
reversal of Aβ-induced LTP impairment [1]: No effect

C[C@@H]1C(=O)O[C@H]2C[C@@]34[C@H]5C[C@@H](C(C)(C)C)[C@]36[C@@H](OC(=O)[C@@H]6O)O[C@@]4(C(=O)O5)[C@]21O [GA, ginkgolide A]
blockade of cell death [2]: blockade of cell death | antagonistic properties toward glycine receptor (glycine receptor): showed antagonistic properties exclusively toward glycine receptor | efficiency of rescue of LTP impairment compared with GJ [1]: slightly less than that of GJ | reversal of Aβ-induced LTP impairment [1]: capable of reproducing the activity of the enriched extract and reversing Aβ-induced LTP impairment | cells surviving [3, 6]: 50.5%±+5.7

C[C@@H]1COC2CC34C5C[C@@H](C(C)(C)C)C36C(OC[C@@H]6O)O[C@@]4(CO5)[C@]21O (stereo partly drawn) [GA-triether]
efficiency of rescue of LTP impairment compared with GJ [1]: slightly less than that of GJ | reversal of Aβ-induced LTP impairment [1]: capable of reproducing the activity of the enriched extract and reversing Aβ-induced LTP impairment

CC1C(=O)OC2C(O)C34C5CC(C(C)(C)C)C36C(OC(=O)C6O)OC4(C(=O)O5)C12O (stereo not drawn) [GB, ginkgolide B]
blockade of cell death [2]: blockade of cell death | antagonistic properties toward glycine receptor (glycine receptor): showed antagonistic properties exclusively toward glycine receptor | reversal of Aβ-induced LTP impairment [1]: No effect

C[C@@H]1C(=O)O[C@@H]2[C@H]1[C@@]13OC4OC(=O)[C@H](O)C45[C@H](C(C)(C)C)[C@@H](O)C(OC1=O)[C@]53[C@H]2O (stereo partly drawn) [GM, Ginkgolide M]
displacement of TBPS (35S-tert-butylbicyclophosphorothionate) [4]: efficiently displaced | inhibition of the GABAA receptor (GABAA receptor): highest inhibition

COc1ccc(C2CNC(=O)C2)cc1OC1CCCC1 (stereo not drawn) [rolipram]
reversal of inhibition of LTP by Aβ1-42 oligomers [5]: can be reversed by treatment with the phosphodiesterase 4 (PDE4) inhibitor rolipram

ginkgolide C [GC]
antagonistic properties toward glycine receptor (glycine receptor): showed antagonistic properties exclusively toward glycine receptor | reversal of Aβ-induced LTP impairment [1]: No effect

ginkgolide J [GJ]
antagonistic properties toward glycine receptor (glycine receptor): showed antagonistic properties exclusively toward glycine receptor | potentiation at the end of the recording (residual potentiation, FIG. 12) ([1]; 155 min): most potent ginkgolide, completely mimicking the activity of the enriched extract | reversal of Aβ-induced LTP impairment [1]: capable of reproducing the activity of the enriched extract and reversing Aβ-induced LTP impairment | cells surviving [3, 6]: 70.7%±1.4 | prevention of Aβ-toxicity ([3]; 5 μM, data not shown): completely prevented the Aβ-toxicity

oligomeric Aβ1-42: Aβ1-42 purchased from American Peptide, prepared in oligomeric form; neurotoxic agent [reference compound]
LTP in the CA1 area relative to control ([1]; 200 nM Aβ1-42 oligomers alone, within 20 min of exposure): depressed LTP in the CA1 area to about a half of control values | effect on baseline transmission ([1]; substance alone): Neither Aβ nor P8A alone affected baseline transmission | cells surviving ([3]; 10 μM oligomeric Aβ1-42 alone, 24 hour exposure): 48.5%±2.4
